From PubChem BioAssay (NCI) come the findings set out here.

Among the test systems are A549 NSCLC; NCI-H226 lung; NCI-H460 lung; OVCAR-3 ovarian; COLO 205 colon; HL-60(TB) leukemia; PC-3 prostate; UACC-257 melanoma; MDA-MB-231 breast; NCI/ADR-RES ovarian.
Holding throughout (test): NCI-60 cell line screen, 48 h

Structures are written as SMILES.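 Results reflect a 48-hour exposure of cells in 96-well plates to compound at five concentrations. The concentration for 50% growth inhibition is given as GI50. TGI marks complete inhibition of growth.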

Turning to `O=C1c2ccccc2C(=O)c2c1ccc1c3ccccc3n(Cc3ccccc3)c21`, the TGI with A549 NSCLC, in the experiment with NCI-H226 lung, in the experiment on NCI-H460 lung, with OVCAR-3 ovarian, in the experiment on COLO 205 colon and with HL-60(TB) leukemia was more than 100 µM each time.

For the compound `CC1SC2(CCCCC2)N(NC(=O)c2[nH]c3ccc(F)cc3c2-c2ccccc2)C1=O` (stereo not given), the GI50 with PC-3 prostate was 41200 nM; in the experiment with A549 NSCLC, 72300 nM; in the experiment with NCI-H226 lung it was more than 100 µM; in the experiment on UACC-257 melanoma, 90.9 µM; with NCI-H460 lung, more than 100000 nM; in the experiment with OVCAR-3 ovarian it was 25200 nM. Besides, the GI50 in the experiment with COLO 205 colon is more than 100000 nM; in the experiment on MDA-MB-231 breast, 31 µM. Further, the TGI in the experiment with PC-3 prostate, in the experiment on A549 NSCLC, in the experiment with NCI-H226 lung, in the experiment with UACC-257 melanoma, in the experiment on NCI-H460 lung and in the experiment on OVCAR-3 ovarian was more than 100 µM each time. Moreover, the TGI in the experiment with COLO 205 colon and with MDA-MB-231 breast was more than 100 µM in each case.

For the compound `COc1ccc(-n2nc(C)c3c2N(C)C2(C)C[C@@H]4C3(C)[C@@H]3CC4(C2)N(C)c2c(c(C)nn2-c2ccc(OC)cc2)[C@H]3C)cc1` (stereo not given in full), the GI50 in the experiment with A549 NSCLC is 3290 nM; in the experiment on NCI/ADR-RES ovarian, 8.03 µM; with NCI-H226 lung it was 5.34 µM; with NCI-H460 lung, 3690 nM; in the experiment with OVCAR-3 ovarian, 7140 nM; with MDA-MB-231 breast, 6.35 µM. Also, the TGI in the experiment on A549 NSCLC is more than 100 µM; in the experiment with NCI/ADR-RES ovarian it was more than 100 µM; in the experiment with NCI-H226 lung it was more than 100 µM; with NCI-H460 lung it was more than 100 µM; in the experiment with OVCAR-3 ovarian, more than 100 µM; in the experiment on MDA-MB-231 breast it was 48.3 µM.

As for `CN1C(=O)C23CC4=CC=CC(O)C4N2C(=O)C1(CO)SS3` (stereo not given), the TGI with PC-3 prostate was 0.387 µM; in the experiment on A549 NSCLC, 0.318 µM; with NCI/ADR-RES ovarian, 0.0661 µM; in the experiment with NCI-H226 lung it was 0.152 µM; in the experiment on UACC-257 melanoma, 0.936 µM; in the experiment on NCI-H460 lung it was 0.801 µM. For the same compound, the TGI stood at 0.33 µM with OVCAR-3 ovarian, 0.292 µM in the experiment on COLO 205 colon and 0.373 µM with MDA-MB-231 breast.

As to `C=C(C)[C@@H]1CCC[C@]2(C(=O)O)CC[C@]3(C)[C@@H](CC[C@@H]4[C@@]5(C)C/C(=C/c6ccncc6)C(=O)C(C)(C)[C@@H]5CC[C@]43C)[C@@H]12`, the GI50 in the experiment on PC-3 prostate is 2390 nM; in the experiment on A549 NSCLC, 1720 nM; in the experiment on NCI/ADR-RES ovarian it was 3.99 µM; in the experiment on NCI-H226 lung it was 4.66 µM; in the experiment on UACC-257 melanoma it was 3 µM; in the experiment on NCI-H460 lung it was 1870 nM. Besides, the GI50 was 1890 nM with OVCAR-3 ovarian, 1640 nM in the experiment on COLO 205 colon and 3.05 µM in the experiment on MDA-MB-231 breast. Further, the TGI in the experiment on PC-3 prostate is 20.3 µM; with A549 NSCLC, 5.26 µM; in the experiment on NCI/ADR-RES ovarian it was more than 100 µM; with NCI-H226 lung, 53.4 µM; in the experiment on UACC-257 melanoma, 13.8 µM; in the experiment with NCI-H460 lung, 4.45 µM. Further, the TGI worked out at 3.85 µM in the experiment on OVCAR-3 ovarian, 3.25 µM with COLO 205 colon and 24.3 µM in the experiment with MDA-MB-231 breast.

On to `N#CC(=C=[N-])[n+]1ccc(Cl)cc1`, for which the TGI in the experiment on A549 NSCLC is more than 100 µM; with NCI-H226 lung, 66.7 µM; with UACC-257 melanoma it was 29.5 µM; with NCI-H460 lung, 55.5 µM; in the experiment with OVCAR-3 ovarian, 31.5 µM; in the experiment with COLO 205 colon it was 32.9 µM. The same compound had a TGI in the experiment on HL-60(TB) leukemia of 20.4 µM.

Consider `COc1ccc(S(=O)(=O)NCCNc2nccc(-c3c(-c4ccccc4)nc4sccn34)n2)cc1`, for which the GI50 is 1640 nM with PC-3 prostate; 1610 nM with A549 NSCLC; 5.18 µM in the experiment with NCI/ADR-RES ovarian; 4.66 µM in the experiment on NCI-H226 lung; 6.47 µM in the experiment on UACC-257 melanoma; 1240 nM in the experiment with NCI-H460 lung. In addition, the GI50 in the experiment with OVCAR-3 ovarian was 3560 nM; with COLO 205 colon it was 2660 nM; in the experiment with HL-60(TB) leukemia, 2870 nM. Besides, the TGI with PC-3 prostate, in the experiment on A549 NSCLC, in the experiment on NCI/ADR-RES ovarian, in the experiment with NCI-H226 lung, in the experiment on UACC-257 melanoma and in the experiment with NCI-H460 lung was more than 100 µM in each case. Besides, the TGI with OVCAR-3 ovarian, in the experiment on COLO 205 colon and in the experiment on HL-60(TB) leukemia was more than 100 µM in each case.

Consider `COc1ccc(N(Cc2cc(OC)c(OC)c(OC)c2)C2OC(=O)c3ccccc32)cc1` (stereo not given), for which the GI50 with PC-3 prostate is 666 nM; in the experiment with A549 NSCLC it was 626 nM; in the experiment on NCI-H226 lung it was 21.8 µM; with NCI-H460 lung it was 394 nM; in the experiment with OVCAR-3 ovarian, 368 nM; in the experiment on COLO 205 colon, 390 nM. Also, the GI50 was 308 nM in the experiment on HL-60(TB) leukemia and 1.21 µM in the experiment on MDA-MB-231 breast. Moreover, the TGI in the experiment on PC-3 prostate is more than 100 µM; in the experiment on A549 NSCLC it was more than 100 µM; in the experiment on NCI-H226 lung, more than 100 µM; with NCI-H460 lung it was more than 60.2 µM; in the experiment on OVCAR-3 ovarian, 1.98 µM; in the experiment with COLO 205 colon it was 5.77 µM. The results for the TGI with HL-60(TB) leukemia and in the experiment on MDA-MB-231 breast were 2.25 µM and more than 25.4 µM, respectively.

As for `COc1cc(C(=O)/C=C/c2c(C(F)(F)F)nc3sccn23)cc(OC)c1OC`, the GI50 is 2660 nM with PC-3 prostate; 3440 nM with A549 NSCLC; 2.17 µM with NCI-H226 lung; 1.9 µM in the experiment on UACC-257 melanoma; 1650 nM in the experiment with NCI-H460 lung; 1860 nM in the experiment with OVCAR-3 ovarian. For the same compound, the values for the GI50 with COLO 205 colon, with HL-60(TB) leukemia and in the experiment with MDA-MB-231 breast were 1940 nM, 1830 nM and 2.92 µM, respectively. Moreover, the TGI in the experiment with PC-3 prostate amounted to 8.69 µM; in the experiment with A549 NSCLC, 18 µM; in the experiment on NCI-H226 lung it was 5.54 µM; in the experiment with UACC-257 melanoma, 4.2 µM; with NCI-H460 lung it was 3.94 µM; in the experiment on OVCAR-3 ovarian it was 3.4 µM. Moreover, the TGI in the experiment with COLO 205 colon stood at 3.44 µM; in the experiment with HL-60(TB) leukemia, 7.63 µM; in the experiment on MDA-MB-231 breast, 9.84 µM.

Turning to `O=C1/C(=C/c2ccccc2)CN(C(=O)OCC(Cl)(Cl)Cl)C/C1=C\c1ccccc1`, the TGI came to 20.5 µM with A549 NSCLC; 4.48 µM in the experiment with UACC-257 melanoma; 5.66 µM in the experiment on NCI-H460 lung; 11.2 µM in the experiment on COLO 205 colon; 3.38 µM in the experiment with HL-60(TB) leukemia.
